Data on one compound can be found in patent US20220226484A1, “THERAPEUTIC PEPTIDES” (COHBAR, INC., priority 2019, published 2022).

The test relates to bleomycin-induced lung fibrosis in male C57BL/6 mice. Put plainly: Therapeutic mouse model of idiopathic pulmonary fibrosis (bleomycin). In kind it is in vivo. The note with it: peptide 5 mg/kg/day intraperitoneal, nintedanib 60 mg/kg/day PO. An excerpt:
The effect of the peptides on the progression of established lung fibrosis can be assessed by monitoring lung fibrosis, lung weight, inflammatory cells in bronchoalveolar lavage fluid (BALF), soluble collagen in BALF, and body weight change in a therapeutic mouse model of idiopathic pulmonary fibrosis. Lung fibrosis was induced in lungs of male C57BL/6 mice between the ages of 6 to 8 weeks by nasophayngeal administration of bleomycin (1.5 U/kg using bleomycin clinical formulation diluted in PBS). A control group of animals were administered saline by the nasopharyngeal route (no-bleomycin control group). After one week, bleomycin-treated animals were randomized to treatment groups (N=10 per group) by body weight and treated daily with vehicle control, nintedanib positive control (60 mg/kg/day PO) or peptide (5 mg/kg/day by intraperitoneal injection). After 14 days of treatment (Day 21), lungs were removed and weighed. The post-caval lobe was separated and snap frozen. The lungs were flushed with Hanks Buffer and bronchoalveolar lavage fluid (BALF) was harvested from each animal. Total BALF leukocyte were counted. Slides were prepared from the remaining BALF leukocytes, fixed and stained with May Geimsa stain and the differential counts were recorded manually. BALF was evaluated for soluble collagen using a Sircol assay. Lungs were fixed in 10% neutral buffered formalin (NBF) for histopathological analysis. Fibrosis was assessed by histopathological analysis of H&E stained mouse lungs using an Ashcroft scoring system.

Turning to `COC(=O)c1ccc2c(c1)NC(=O)/C2=C(\Nc1ccc(N(C)C(=O)CN2CCN(C)CC2)cc1)c1ccccc1` [Nintedanib, nintedanib, reference compound], under “Day 21, 14 days of treatment”, the “Mean (SEM) Leukocyte Count in BALF (Percent of Bleomycin Control)” value is recorded as 62.4 (6.08) Percent, the “Mean (SEM) Lung Weight (Percent of Bleomycin Control)” value was 75.2 (6.04) Percent and the “Mean (SEM) Percent Body Weight Change from Baseline” value is on record as −7.95 (6.09) Percent. Also, the “Mean (SEM) Collagen Content in BALF (Percent of Bleomycin Control)” value (Sircol assay, Day 21) is 44.0 (6.48) Percent. The “Mean (SEM) Ashcroft Score (Percent of Bleomycin Control)” value (histopathology, Day 21) is 78.70 (9.72) Percent.
